# Experimental data: ChEMBL document CHEMBL1142754, “Lp-PLA2 inhibitory activities of fatty acid glycerols isolated from Saururus chinensis roots” (Bioorg Med Chem Lett, 2005)
# Assay: Inhibitory concentration against lipoprotein-associated phospholipase A2 (Lp-PLA2) was determined in Pseudomonas fluorescens (DMS 115797)
row,SMILES,IC50 [µM]
1,CCCCC/C=C\C/C=C\CCCCCCCC(=O)OC[C@H](O)CO,52
2,CCCCC/C=C\C/C=C\CCCCCCCC(=O)OC[C@@H](O)CO [GLYCERYL MONOLINOLEATE],4.5
